Here are results for eight compounds from ChEMBL document CHEMBL6078706, “Deciphering the Comprehensive Structure-Activity Relationship of Sunshinamide for Breast Cancer Therapy through Dual Modulation of Apoptotic and Ferroptotic Pathways via TrxR1 and Gpx4 Inhibition” (J Med Chem, 2024).

The subject of one data set is HEK293. Put plainly: Antiproliferative activity against human HEK293 cells assessed as cell viability upto 50 nM incubated for 48 hrs by MTT assay. It counts as toxicity, cell-based. The conditions noted are these: hek293, 48 h, 0.05 µM. Background: Tetrazolium assays rely on reduction of a dye to a coloured formazan, in cell work by metabolically active cells.
For data set [1], the system named is MDA-MB-468. Put plainly: Induction of ferroptosis in human MDA-MB-468 cells assessed as increase in cell viability at 25 nM incubated for 48 hrs. The data set is classed as functional, cell-based.
Another data set has as its system A549. Put plainly: Antiproliferative activity against human A549 cells assessed as cell viability at 10 nM incubated for 48 hrs by MTT assay. It counts as functional, cell-based.
In data set [2] the test system is MDA-MB-468. Put plainly: Antiproliferative activity against human MDA-MB-468 cells assessed as cell viability at 10 nM incubated for 48 hrs by MTT assay. It counts as functional, cell-based.

Active and inactive are the calls of the source. The calls are words filed in the database; no cut-off is given here.

Regarding `CCCCCCC[C@@H]1CC(=O)NCC(=O)N[C@H]2CSSC[C@H](NC2=O)C(=O)O1`, the Activity result with HEK293 is given as “Non-toxic”.

On to `CCCCCCC[C@H]1CC(=O)N[C@H](Cc2ccccc2)C(=O)N[C@H]2CSSC[C@H](NC2=O)C(=O)O1`, for which, in the data set with HEK293, the Activity entry was “Non-toxic”.

Consider `CC(C)(C)OC(=O)N[C@@H]1CSSC[C@@H](C(=O)OC(C)(C)C)NC1=O`, for which, in the data set with HEK293, the Activity entry was “Non-toxic”.

`CCOC(=O)c1ccc(NC2CCCCC2)c(N)c1`: the result in the data set with MDA-MB-468 [1] was Active.

On to `CCCCCCC[C@@H]1CC(=O)N[C@H](CO)C(=O)N[C@H]2CSSC[C@H](NC2=O)C(=O)O1`, for which the Activity entry in the data set with HEK293 is “Non-toxic”.

For `CC[C@@H]1CC(=O)N[C@H](Cc2ccccc2)C(=O)N[C@H]2CSSC[C@H](NC2=O)C(=O)O1`, the outcome in the data set on A549 and in the data set with MDA-MB-468 [2] was Active. Further, in the data set with HEK293, the Activity result is “Non-toxic”.

On to `O=C1C[C@@H](c2ccccc2)OC(=O)[C@@H]2CSSC[C@H](NC(=O)[C@@H](Cc3ccccc3)N1)C(=O)N2`, for which the outcome in the data set with A549 and with MDA-MB-468 [2] was Active. In addition, in the data set with HEK293, the Activity result was “Non-toxic”.

Regarding `CCCCCCC[C@@H]1CC(=O)N[C@H](CC(C)C)C(=O)N[C@H]2CSSC[C@H](NC2=O)C(=O)O1`, the Activity entry in the data set on HEK293 was “Non-toxic”.
